Common to all, as to format: cell-based
The target in experiment [1] is T1, Neuronal acetylcholine receptor; alpha2/beta4 (Rattus norvegicus) (UniProt P12389+P12392). In words: Antagonist activity at rat alpha2beta4 nAChR expressed in Xenopus laevis oocytes assessed as inhibition of Ach-induced response up to 10 uM at -70 mV holding potential by two electrode voltage-clamp assay. (Two-electrode voltage clamp is typically applied to oocytes expressing channels or transporters.)

The target of experiment [2] is T2, Neuronal acetylcholine receptor; alpha4/beta2 (Rattus norvegicus) (UniProt P09483+P12390). Kind of experiment: Antagonist activity at rat alpha4beta2 nAChR expressed in Xenopus laevis oocytes assessed as inhibition of Ach-induced response up to 10 uM at -70 mV holding potential by two electrode voltage-clamp assay.
Experiment [3] addresses T3, Neuronal acetylcholine receptor; alpha4/beta4 (Rattus norvegicus) (UniProt P09483+P12392). In words: Antagonist activity at rat alpha4beta4 nAChR expressed in Xenopus laevis oocytes assessed as inhibition of Ach-induced response up to 10 uM at -70 mV holding potential by two electrode voltage-clamp assay.
For experiment [4], the target named is Nicotinic acetylcholine receptor alpha9/alpha10 (Rattus norvegicus) (UniProt P43144+Q9JLB5). Kind of experiment: Antagonist activity at rat alpha9alpha10 nAChR expressed in Xenopus laevis oocytes assessed as inhibition of Ach-induced response at 10 nM at -70 mV holding potential preincubated for 5 mins followed by compound washout by two electrode voltage-clamp assay.

Experiment [5] has as its target T2, Neuronal acetylcholine receptor; alpha4/beta2 (Rattus norvegicus). In words: Antagonist activity at rat alpha4beta2 nAChR expressed in Xenopus laevis oocytes assessed as inhibition of Ach-induced response at >10 uM at -70 mV holding potential by two electrode voltage-clamp assay.
Experiment [6] concerns the target T3, Neuronal acetylcholine receptor; alpha4/beta4 (Rattus norvegicus). Kind of experiment: Antagonist activity at rat alpha4beta4 nAChR expressed in Xenopus laevis oocytes assessed as inhibition of Ach-induced response at >10 uM at -70 mV holding potential by two electrode voltage-clamp assay.
Experiment [7] has as its target T1, Neuronal acetylcholine receptor; alpha2/beta4 (Rattus norvegicus). Kind of experiment: Antagonist activity at rat alpha2beta4 nAChR expressed in Xenopus laevis oocytes assessed as inhibition of Ach-induced response at >10 uM at -70 mV holding potential by two electrode voltage-clamp assay.
The target in experiment [8] is T4, Neuronal acetylcholine receptor; alpha9/alpha10 (Homo sapiens) (UniProt Q9UGM1+Q9GZZ6). In words: Antagonist activity at human alpha9alpha10 nAChR expressed in Xenopus laevis oocytes assessed as inhibition of Ach-induced response at 50 nM at -70 mV holding potential by two electrode voltage-clamp assay relative to control.
For experiment [9], the target named is T4, Neuronal acetylcholine receptor; alpha9/alpha10 (Homo sapiens). In words: Antagonist activity at human alpha9alpha10 nAChR expressed in Xenopus laevis oocytes assessed as inhibition of Ach-induced response at 100 nM at -70 mV holding potential by two electrode voltage-clamp assay relative to control.

Active and inactive are the calls of the source. The calls are words filed in the database; no cut-off is given here. Positions of bridges follow the written chain, without caps; N, C: chain ends. Residues, ends and D or L forms follow the SMILES beside them.

As a reminder, the inhibition is the drop in the measured response relative to a control, in per cent. For `CC[C@H](C)[C@@H]1NC(=O)[C@H](CCCNC(=N)N)NC(=O)[C@H](CCCNC(=N)N)NC(=O)[C@@H](NC(=O)[C@H](Cc2ccc(O)cc2)NC(=O)[C@H](CCCNC(=N)N)NC(=O)[C@H](CCCNC(=N)N)NC(=O)[C@H](CCCNC(=N)N)NC(=O)[C@H](CCCNC(=N)N)NC(=O)[C@H](CC(=O)O)NC(=O)[C@H](Cc2ccc(O)cc2)NC(=O)[C@@H]2CCCN2C(=O)[C@H](CO)NC(=O)[C@H](CCCNC(=N)N)NC(=O)[C@H](CO)NC(=O)[C@H](Cc2ccc(O)cc2)NC(=O)[C@H](CCCNC(=N)N)NC(=O)CNC(=O)[C@H](CO)NC(=O)[C@H](CO)NC(=O)[C@H](CCCNC(=N)N)NC(=O)[C@H](CO)NC(=O)[C@@H](N)[C@@H](C)O)CSSC[C@@H](C(=O)N[C@H](C(=O)O)C(C)C)NC(=O)[C@H](C)NC(=O)[C@H](CC(=O)O)NC(=O)[C@H]([C@@H](C)O)NC1=O` (H-TSRSSGRYSRSPYDRRRRYCRRITDACV-OH; disulfide 20-27), the inhibition result in experiment [1], in experiment [2] and in experiment [3] was “inactive” in each case.

In the case of H-TARSSGRYARSPYDRRRRYARRITDAAV-OH, the inhibition result in experiment [1], in experiment [2] and in experiment [3] was “inactive” throughout.

Regarding H-TARSSGRYARSPYDRRRRYSRRITDASV-OH, the inhibition entry in experiment [4], in experiment [5], in experiment [6] and in experiment [7] was “Active” each time. Further, the inhibition result in [1], in [2] and in experiment [3] was “inactive” in each case. In addition, the results for the inhibition in [8] and in experiment [9] were 74% and 100%, respectively.

With H-TSRSSGRYSRSPYDRRRRYARRITDAAV-OH, the inhibition result in [1], in experiment [2] and in [3] was “inactive” each time.

Turning to H-TSRSSGRYSRSPYDRRRRYSRRITDASV-OH, the inhibition entry in experiment [1], in [2] and in [3] was “inactive” each time.

The record behind these values is ChEMBL document CHEMBL4376895.
